What was measured:
[1] = system: passive cutaneous anaphylaxis reaction; test: Passive cutaneous anaphylaxis reaction; format: in vivo, rat; conditions: for % inhibition: reduction of coloured surface; for ED50: Rattus norvegicus
Description: The method used is that described by MOTA I in "Immunology" 1964, 7, Page 681. This method consists of sensitizing rats by 4 intradermal injections of 0.1 ml rat antiserum. The antiserum is obtained from animals treated with a mixture of ovalbumin and bordetella pertussis. 72 hours after sensitization, the product to be studied and 1 ml per rat (IV) of a 0.25% solution of Evans blue+5 mg/ml ovalbumin in an isotonic aqueous solution of […] sodium chloride are administered to the animals intravenously or intraperitoneally. Thirty minutes after this last injection, the animals are killed and one measures the surface area of each bruise corresponding to the point of injection of the antiserum. The results are expressed as a percentage reduction of the coloured surface. The results are given in Table III hereafter in which the results obtained with disodium cromoglycate (used intravenously) are also shown by way of comparison.

histamine [2] = test: Histamine bronchoconstrictor aerosol (antihistamine activity); format: in vivo, guinea pig; conditions: for % protection: animals without apneic crisis within 5 minutes
Description: Batches of 6 guinea pigs weighing from 200 to 250 g are exposed to an aerosol of 0.2% histamine in an aqueous solution, in a small chamber for 5 minutes. Two aerosols are used at an interval of 4 hours. The product tested is administered intraperitoneally 30 minutes before the use of the second aerosol.

histamine [3] = test: Action with regard to a LD100 of histamine (protection from mortality); format: in vivo, guinea pig; conditions: for % protection: mortality caused by histamine, 1 hour
Description: Male tricolour guinea pigs weighing 400 to 500 g receive the product studied intraperitoneally. 30 minutes later, 800 γ/kg histamine, or the LD 100 in physiological solution are injected intraveinously.
The animals are kept under observation for 1 hour.

O=C(O)c1cc(=O)c2c(OCC(O)COc3cccc4oc(C(=O)O)cc(=O)c34)cccc2o1 [Disodium cromoglycate, disodium cromoglycate]
Mean Surface area ([1]; IV, 0.15 mg/kg, control 31.77 ± 3.16): 27.86 ± 3.82 mm^2 | % inhibition ([1]; IV, 0.15 mg/kg, T ns): 12% | Mean Surface area ([1]; IV, 0.31 mg/kg, control 31.77 ± 3.16): 30.5 ± 2.59 mm^2 | % inhibition ([1]; IV, 0.31 mg/kg, T ns): 4% | Mean Surface area ([1]; IV, 0.625 mg/kg, control 72.46 ± 4.37): 35.42 ± 5.02 mm^2 | % inhibition ([1]; IV, 0.625 mg/kg, T ***): 51% | Mean Surface area ([1]; IV, 1.25 mg/kg, control 31.77 ± 3.16): 2.30 ± 1.07 mm^2 | % inhibition ([1]; IV, 1.25 mg/kg, T ***): 93% | Mean Surface area ([1]; IV, 2.5 mg/kg, control 31.77 ± 3.16): 0.23 ± 0.23 mm^2 | % inhibition ([1]; IV, 2.5 mg/kg, T ***): 99% | ED50 ([1]; iv): 0.64 mg/kg

CN1CCN(C2=Nc3ccccc3Sc3ncccc32)CC1 [Example 2, 5-(1'-methyl-4'-piperazinyl)pyrido[2,3-b][1,5]benzothiazepine]
Mean Surface area ([1]; I.P., 0.125 mg/kg, control 66.7 ± 2.62): 54.4 ± 3.26 mm^2 | % inhibition ([1]; I.P., 0.125 mg/kg, T **): 18% | Mean Surface area ([1]; I.P., 0.5 mg/kg, control 90.8 ± 5.92): 46.3 ± 3.78 mm^2 | % inhibition ([1]; I.P., 0.5 mg/kg, T ***): 49% | Mean Surface area ([1]; I.P., 1 mg/kg, control 66.7 ± 2.62): 25.1 ± 3.45 mm^2 | % inhibition ([1]; I.P., 1 mg/kg, T ***): 62% | ED50 ([1]; ip, I.P.): 0.57 mg/kg | % protection (histamine [2]; 0.062 mg/kg intraperitoneally): 17% | % protection (histamine [2]; 0.125 mg/kg intraperitoneally): 33% | % protection (histamine [2]; 0.250 mg/kg intraperitoneally): 50% | % protection (histamine [2]; 0.500 mg/kg intraperitoneally): 100% | ED50 (histamine [2]; Cavia porcellus, ip, intraperitoneally, 0.2% histamine aerosol): 0.155 mg/kg | % protection (histamine [3]; 0.062 mg/kg intraperitoneally): 0% | % protection (histamine [3]; 0.125 mg/kg intraperitoneally): 60% | % protection (histamine [3]; 0.250 mg/kg intraperitoneally): 100% | ED50 (histamine [3]; Cavia porcellus, ip, intraperitoneally, 800 γ/kg histamine (LD 100) intravenously): 0.12 mg/kg
